Values quoted from earlier work, collected in PMC9851200, “Multiparameter phenotypic screening for endogenous TFEB and TFE3 translocation identifies novel chemical series modulating lysosome function” (Autophagy, 2022).

Key:
Parameters in all cases: method as in original PKIS2 published data
[1] = target: kinases (KINOMEscan panel) (Homo sapiens, UniProt P06241); conditions: kinase FYN; Published KINOMEscan; ref original PKIS2 published data; cited from earlier work
[2] = target: kinases (KINOMEscan panel) (Homo sapiens, UniProt P11362); conditions: kinase FGFR1; Published KINOMEscan; ref original PKIS2 published data; cited from earlier work
[3] = target: kinases (KINOMEscan panel) (Homo sapiens, UniProt Q00537); conditions: kinase CDK17; Published KINOMEscan; ref original PKIS2 published data; cited from earlier work
[4] = target: kinases (KINOMEscan panel) (Homo sapiens, UniProt Q96SB4); conditions: kinase SRPK1; Published KINOMEscan; ref original PKIS2 published data; cited from earlier work
[5] = target: T1, kinases (KINOMEscan panel) (Homo sapiens, UniProt Q9NRM7); conditions: Published KINOMEscan; ref original PKIS2 published data; cited from earlier work
T1 sequence (Q9NRM7 1-1088): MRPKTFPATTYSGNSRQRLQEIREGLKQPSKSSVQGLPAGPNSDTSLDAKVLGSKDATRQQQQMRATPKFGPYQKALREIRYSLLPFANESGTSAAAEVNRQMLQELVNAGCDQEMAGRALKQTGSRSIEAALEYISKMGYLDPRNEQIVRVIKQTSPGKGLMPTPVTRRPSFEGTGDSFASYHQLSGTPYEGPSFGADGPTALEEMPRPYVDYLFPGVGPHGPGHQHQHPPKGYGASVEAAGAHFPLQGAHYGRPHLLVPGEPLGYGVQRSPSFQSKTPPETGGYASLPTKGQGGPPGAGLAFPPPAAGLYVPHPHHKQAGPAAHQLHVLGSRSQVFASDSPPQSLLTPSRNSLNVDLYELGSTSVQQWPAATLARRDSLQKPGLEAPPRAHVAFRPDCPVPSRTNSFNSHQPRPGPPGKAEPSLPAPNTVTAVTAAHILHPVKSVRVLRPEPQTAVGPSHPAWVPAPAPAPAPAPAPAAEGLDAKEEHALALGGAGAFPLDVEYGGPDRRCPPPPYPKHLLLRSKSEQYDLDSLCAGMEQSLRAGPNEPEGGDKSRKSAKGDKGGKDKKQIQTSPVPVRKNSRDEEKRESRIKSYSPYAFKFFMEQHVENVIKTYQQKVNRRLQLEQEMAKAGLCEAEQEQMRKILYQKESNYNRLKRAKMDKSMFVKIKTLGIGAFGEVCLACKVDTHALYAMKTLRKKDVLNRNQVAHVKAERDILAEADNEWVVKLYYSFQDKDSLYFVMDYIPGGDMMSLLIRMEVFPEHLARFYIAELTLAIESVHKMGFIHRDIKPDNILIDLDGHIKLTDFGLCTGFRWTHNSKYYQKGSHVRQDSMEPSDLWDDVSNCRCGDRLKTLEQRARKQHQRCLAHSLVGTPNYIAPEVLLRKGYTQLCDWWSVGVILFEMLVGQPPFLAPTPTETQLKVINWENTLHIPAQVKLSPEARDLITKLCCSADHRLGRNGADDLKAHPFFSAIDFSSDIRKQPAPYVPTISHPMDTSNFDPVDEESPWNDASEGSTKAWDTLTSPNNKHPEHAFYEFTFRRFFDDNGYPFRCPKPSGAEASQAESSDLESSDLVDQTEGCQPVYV

[6] = target: T2, kinases (KINOMEscan panel) (Homo sapiens, UniProt Q9UL54); conditions: kinase TAOK2; Published KINOMEscan; ref original PKIS2 published data; cited from earlier work
T2 sequence (Q9UL54 1-1235): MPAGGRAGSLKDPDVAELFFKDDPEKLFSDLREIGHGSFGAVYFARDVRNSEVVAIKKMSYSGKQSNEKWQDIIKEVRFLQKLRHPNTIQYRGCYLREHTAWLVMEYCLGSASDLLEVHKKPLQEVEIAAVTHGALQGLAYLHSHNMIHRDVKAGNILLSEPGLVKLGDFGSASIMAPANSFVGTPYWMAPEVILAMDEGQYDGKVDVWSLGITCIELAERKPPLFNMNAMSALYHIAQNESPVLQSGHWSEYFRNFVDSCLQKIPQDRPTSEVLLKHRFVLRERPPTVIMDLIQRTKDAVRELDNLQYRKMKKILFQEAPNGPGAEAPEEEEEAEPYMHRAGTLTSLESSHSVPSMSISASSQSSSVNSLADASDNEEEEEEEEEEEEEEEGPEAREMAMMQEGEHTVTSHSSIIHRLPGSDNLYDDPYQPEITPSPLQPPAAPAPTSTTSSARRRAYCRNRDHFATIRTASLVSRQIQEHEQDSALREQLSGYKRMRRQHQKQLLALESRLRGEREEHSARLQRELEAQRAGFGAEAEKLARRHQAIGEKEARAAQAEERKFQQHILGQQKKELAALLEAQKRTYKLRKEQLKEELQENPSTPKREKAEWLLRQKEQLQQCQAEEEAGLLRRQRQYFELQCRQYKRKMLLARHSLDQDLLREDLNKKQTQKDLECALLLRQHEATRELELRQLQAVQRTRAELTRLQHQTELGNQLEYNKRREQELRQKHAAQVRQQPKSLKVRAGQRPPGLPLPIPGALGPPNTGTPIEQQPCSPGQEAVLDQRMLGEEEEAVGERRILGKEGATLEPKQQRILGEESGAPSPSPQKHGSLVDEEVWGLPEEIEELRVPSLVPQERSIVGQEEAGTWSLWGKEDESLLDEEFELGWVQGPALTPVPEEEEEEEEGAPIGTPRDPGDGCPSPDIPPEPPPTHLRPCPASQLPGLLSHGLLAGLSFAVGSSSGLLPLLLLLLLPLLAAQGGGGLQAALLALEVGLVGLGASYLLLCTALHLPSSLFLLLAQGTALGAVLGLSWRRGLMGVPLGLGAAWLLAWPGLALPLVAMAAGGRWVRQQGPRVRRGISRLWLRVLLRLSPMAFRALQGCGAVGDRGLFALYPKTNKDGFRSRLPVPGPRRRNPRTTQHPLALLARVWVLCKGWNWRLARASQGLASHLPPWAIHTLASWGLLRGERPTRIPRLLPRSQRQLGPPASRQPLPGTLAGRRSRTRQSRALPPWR

[7] = target: kinases (KINOMEscan panel) (Homo sapiens, UniProt Q9Y3S1); conditions: WNK2; Published KINOMEscan; ref original PKIS2 published data; cited from earlier work
Chain of kinases (KINOMEscan panel) (Homo sapiens, UniProt Q9Y3S1) (Q9Y3S1 whole entry): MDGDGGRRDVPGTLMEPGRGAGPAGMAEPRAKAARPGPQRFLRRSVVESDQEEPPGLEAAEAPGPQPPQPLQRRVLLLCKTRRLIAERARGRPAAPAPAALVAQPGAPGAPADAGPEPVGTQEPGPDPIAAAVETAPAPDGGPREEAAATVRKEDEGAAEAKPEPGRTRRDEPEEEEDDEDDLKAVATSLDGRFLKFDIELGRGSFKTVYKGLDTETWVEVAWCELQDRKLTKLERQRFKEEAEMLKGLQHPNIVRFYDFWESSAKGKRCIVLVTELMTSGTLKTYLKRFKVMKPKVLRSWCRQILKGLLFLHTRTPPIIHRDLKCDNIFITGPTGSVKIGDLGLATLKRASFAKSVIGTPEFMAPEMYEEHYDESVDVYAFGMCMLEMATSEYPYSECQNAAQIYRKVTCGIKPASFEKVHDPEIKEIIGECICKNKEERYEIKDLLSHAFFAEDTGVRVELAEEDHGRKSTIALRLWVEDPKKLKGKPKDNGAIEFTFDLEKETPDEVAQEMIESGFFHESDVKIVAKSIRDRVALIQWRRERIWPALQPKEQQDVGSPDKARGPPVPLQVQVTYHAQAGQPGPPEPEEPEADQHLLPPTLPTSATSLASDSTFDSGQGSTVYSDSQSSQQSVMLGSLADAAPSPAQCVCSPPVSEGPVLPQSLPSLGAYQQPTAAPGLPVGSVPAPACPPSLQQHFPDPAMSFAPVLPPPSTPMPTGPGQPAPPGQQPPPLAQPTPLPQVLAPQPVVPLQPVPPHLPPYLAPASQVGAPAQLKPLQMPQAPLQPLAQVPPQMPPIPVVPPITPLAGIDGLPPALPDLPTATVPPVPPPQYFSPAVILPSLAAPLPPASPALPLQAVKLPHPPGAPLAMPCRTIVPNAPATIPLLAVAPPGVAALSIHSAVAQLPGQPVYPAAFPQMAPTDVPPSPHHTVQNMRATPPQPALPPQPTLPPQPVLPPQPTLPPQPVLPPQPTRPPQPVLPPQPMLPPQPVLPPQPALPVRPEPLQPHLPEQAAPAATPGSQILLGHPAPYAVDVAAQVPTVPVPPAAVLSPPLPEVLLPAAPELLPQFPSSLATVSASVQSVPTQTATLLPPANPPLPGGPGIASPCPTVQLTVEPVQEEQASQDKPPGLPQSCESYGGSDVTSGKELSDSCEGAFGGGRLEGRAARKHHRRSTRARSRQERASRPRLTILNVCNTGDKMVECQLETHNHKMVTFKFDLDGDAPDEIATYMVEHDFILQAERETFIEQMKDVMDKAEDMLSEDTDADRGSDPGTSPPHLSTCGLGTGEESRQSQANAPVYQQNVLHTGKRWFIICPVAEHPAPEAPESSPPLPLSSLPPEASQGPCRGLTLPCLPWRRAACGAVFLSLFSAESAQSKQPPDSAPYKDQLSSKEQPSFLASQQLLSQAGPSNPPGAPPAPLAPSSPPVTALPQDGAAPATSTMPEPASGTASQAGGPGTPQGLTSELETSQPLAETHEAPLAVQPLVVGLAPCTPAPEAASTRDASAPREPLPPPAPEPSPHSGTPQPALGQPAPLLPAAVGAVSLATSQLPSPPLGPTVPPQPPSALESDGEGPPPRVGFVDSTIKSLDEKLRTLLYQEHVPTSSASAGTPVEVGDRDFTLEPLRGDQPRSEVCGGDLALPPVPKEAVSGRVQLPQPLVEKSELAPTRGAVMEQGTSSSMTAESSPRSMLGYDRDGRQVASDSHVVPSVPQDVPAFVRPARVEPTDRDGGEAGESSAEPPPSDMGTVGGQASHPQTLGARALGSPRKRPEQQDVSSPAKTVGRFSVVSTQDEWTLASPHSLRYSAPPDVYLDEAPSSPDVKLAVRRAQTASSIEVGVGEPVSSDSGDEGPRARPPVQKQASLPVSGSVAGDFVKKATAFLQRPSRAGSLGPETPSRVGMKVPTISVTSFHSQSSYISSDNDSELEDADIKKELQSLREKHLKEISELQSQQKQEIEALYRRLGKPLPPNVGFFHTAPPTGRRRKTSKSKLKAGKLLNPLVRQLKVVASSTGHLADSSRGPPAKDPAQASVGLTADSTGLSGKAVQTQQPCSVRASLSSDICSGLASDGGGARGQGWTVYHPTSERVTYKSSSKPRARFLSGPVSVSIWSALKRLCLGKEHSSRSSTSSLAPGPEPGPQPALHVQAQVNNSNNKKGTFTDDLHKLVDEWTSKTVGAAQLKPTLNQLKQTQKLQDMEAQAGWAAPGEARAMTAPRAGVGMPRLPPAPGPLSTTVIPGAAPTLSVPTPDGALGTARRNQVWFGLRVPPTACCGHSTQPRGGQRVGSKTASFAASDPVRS

Chain of kinases (KINOMEscan panel) (Homo sapiens, UniProt Q96SB4) (Q96SB4 whole entry): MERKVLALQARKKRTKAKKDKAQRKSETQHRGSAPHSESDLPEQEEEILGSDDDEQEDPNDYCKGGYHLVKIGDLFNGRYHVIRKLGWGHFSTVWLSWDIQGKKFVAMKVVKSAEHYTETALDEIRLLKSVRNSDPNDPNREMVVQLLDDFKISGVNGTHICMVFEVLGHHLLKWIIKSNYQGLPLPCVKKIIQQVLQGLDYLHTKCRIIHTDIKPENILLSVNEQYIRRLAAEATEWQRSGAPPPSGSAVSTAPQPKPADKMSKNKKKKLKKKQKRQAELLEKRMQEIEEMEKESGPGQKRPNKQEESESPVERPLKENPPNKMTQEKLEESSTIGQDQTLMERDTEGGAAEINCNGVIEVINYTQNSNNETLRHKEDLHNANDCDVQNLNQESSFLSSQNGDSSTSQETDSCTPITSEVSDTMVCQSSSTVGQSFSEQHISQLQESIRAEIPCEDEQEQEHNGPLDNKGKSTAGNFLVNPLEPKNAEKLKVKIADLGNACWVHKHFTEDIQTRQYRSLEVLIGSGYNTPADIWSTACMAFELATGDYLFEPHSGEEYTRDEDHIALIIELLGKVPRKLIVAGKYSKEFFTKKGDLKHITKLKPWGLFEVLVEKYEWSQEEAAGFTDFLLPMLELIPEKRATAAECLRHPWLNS
Chain of kinases (KINOMEscan panel) (Homo sapiens, UniProt Q00537) (Q00537 whole entry): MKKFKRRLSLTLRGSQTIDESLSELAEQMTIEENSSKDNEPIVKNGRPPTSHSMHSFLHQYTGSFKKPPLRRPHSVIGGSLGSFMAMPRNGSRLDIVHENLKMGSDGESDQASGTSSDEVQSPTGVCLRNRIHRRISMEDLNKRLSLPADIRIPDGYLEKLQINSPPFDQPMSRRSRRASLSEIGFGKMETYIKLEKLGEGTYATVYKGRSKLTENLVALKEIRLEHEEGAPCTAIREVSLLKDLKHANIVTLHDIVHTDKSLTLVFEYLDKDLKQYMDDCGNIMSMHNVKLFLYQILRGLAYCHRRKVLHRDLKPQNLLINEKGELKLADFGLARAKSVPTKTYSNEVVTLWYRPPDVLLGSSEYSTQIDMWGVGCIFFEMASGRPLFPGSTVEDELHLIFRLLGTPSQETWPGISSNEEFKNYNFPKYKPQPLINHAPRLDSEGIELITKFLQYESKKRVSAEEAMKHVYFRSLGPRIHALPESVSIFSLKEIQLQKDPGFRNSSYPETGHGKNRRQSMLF
Chain of kinases (KINOMEscan panel) (Homo sapiens, UniProt P11362) (P11362 22-822): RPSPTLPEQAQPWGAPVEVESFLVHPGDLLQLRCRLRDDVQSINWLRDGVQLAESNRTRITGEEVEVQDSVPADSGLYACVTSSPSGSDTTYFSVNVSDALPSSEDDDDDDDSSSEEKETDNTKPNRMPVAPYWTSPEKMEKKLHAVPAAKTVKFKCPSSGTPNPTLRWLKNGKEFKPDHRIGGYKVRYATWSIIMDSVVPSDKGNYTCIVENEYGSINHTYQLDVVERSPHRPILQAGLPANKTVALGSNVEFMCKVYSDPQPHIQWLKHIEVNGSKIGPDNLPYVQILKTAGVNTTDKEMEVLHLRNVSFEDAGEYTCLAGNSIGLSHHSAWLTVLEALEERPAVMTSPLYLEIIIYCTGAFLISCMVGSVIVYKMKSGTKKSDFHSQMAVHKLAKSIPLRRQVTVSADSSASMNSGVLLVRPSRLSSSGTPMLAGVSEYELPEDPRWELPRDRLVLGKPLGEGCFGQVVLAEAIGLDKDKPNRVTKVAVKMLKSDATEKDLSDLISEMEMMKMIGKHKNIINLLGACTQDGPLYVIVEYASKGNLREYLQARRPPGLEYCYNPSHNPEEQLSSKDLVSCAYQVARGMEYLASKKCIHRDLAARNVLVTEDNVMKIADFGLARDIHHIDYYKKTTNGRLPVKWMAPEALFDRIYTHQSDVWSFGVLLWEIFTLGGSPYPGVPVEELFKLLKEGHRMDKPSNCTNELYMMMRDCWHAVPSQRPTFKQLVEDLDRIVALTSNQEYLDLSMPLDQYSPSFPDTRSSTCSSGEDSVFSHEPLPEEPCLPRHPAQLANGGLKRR
Chain of kinases (KINOMEscan panel) (Homo sapiens, UniProt P06241) (P06241 whole entry): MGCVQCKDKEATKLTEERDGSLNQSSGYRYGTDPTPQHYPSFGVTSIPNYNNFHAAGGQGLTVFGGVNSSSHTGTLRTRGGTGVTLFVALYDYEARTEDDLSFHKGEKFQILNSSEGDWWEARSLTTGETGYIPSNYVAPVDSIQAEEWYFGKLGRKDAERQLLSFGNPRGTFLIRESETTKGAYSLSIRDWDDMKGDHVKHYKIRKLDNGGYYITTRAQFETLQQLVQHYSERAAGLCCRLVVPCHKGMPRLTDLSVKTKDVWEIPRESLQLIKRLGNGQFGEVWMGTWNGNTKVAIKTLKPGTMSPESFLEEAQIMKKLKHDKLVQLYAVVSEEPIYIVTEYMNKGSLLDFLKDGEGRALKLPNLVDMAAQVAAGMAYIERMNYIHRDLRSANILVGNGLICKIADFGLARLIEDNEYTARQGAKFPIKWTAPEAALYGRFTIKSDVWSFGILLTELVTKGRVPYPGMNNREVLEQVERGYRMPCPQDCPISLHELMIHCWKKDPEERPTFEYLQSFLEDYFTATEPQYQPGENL

Cc1cccc(-c2nc(Nc3ccncc3)c3ccccc3n2)n1 [NK215]
KINOMEscan FYN [1]: 13 | KINOMEscan FGFR1 [2]: 5 | KINOMEscan CDK17 [3]: 10 | KINOMEscan SRPK1 [4]: 0 | KINOMEscan LATS2 [5]: 0 | KINOMEscan TAOK2 [6]: 17 | KINOMEscan WNK2 [7]: 0
